In publication PMC7402526, “An in vitro quantitative systems pharmacology approach for deconvolving mechanisms of drug-induced, multilineage cytopenias” (PLoS Computational Biology, 2020):

What was measured:
[1] = test system: late erythroid cells (Eryth II); test: MLTA, ErythII: concentration-response and QSP model fit; assay type: cell-based, human; conditions: Homo sapiens, 144 h
How it was run: (§1)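 Drug was added at time 0 to thawed human bone marrow CD34+ cells in SFEM II plus a cytokine cocktail. After 6 days at 37°C, subsets were counted by surface-marker flow with TruCount beads. Vehicle-normalized, donor-pooled data then fed an Emax model separating anti-proliferative from cell-killing effects.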

[2] = test system: B cells (B-lin); test: MLTA, B-lin: concentration-response and QSP model fit; assay type: cell-based, human; conditions: Homo sapiens, B-cell, 144 h
How it was run: as §1

[3] = test system: monocyte progenitors (monocyte prog); test: MLTA, MonoP: concentration-response and QSP model fit; assay type: cell-based, human; conditions: Homo sapiens, Monocyte, 144 h
How it was run: as §1

[4] = test system: total dead cells (totalDeadCells); test: MLTA, total dead cells concentration-response; assay type: cell-based; conditions: Homo sapiens, 144 h, 6 days, normalized to vehicle control, read-out: total_dead normalized cell count
How it was run: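 Freeze-thawed primary human bone marrow CD34+ cells in SFEM II with cytokine cocktail, drug added day 0, 6 days at 37°C, 5% CO2. Live/dead counts by 17-parameter flow cytometry with DAPI exclusion, bead-normalized, volume-corrected to cells/mL. Normalized per donor to mean of six vehicle wells; 2–7 donors pooled.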

[5] = test system: hematopoietic stem cells (HSCs); test: Multi-lineage toxicity assay (MLTA), HSCs: concentration-response and QSP model fit; assay type: cell-based, human; set-up: EmaxAP,HSC / EmaxT,HSC / Emax_drug_HSC: unitless, 0–2; ≤1 anti-proliferative, >1 adds cell killing
How it was run: as §1

[6] = test system: monocytes (monocyte-lin); test: MLTA, Mono: concentration-response and QSP model fit; assay type: cell-based, human; conditions: Homo sapiens, Monocyte, 144 h
How it was run: as §1

[7] = test system: multi-potent progenitors (MPPs); test: MLTA, MPPs: concentration-response and QSP model fit; assay type: cell-based, human; conditions: Homo sapiens, 144 h
How it was run: as §1

[8] = test system: early erythroid cells (Eryth I); test: MLTA, ErythI: concentration-response and QSP model fit; assay type: cell-based, human; conditions: Homo sapiens, 144 h
How it was run: as §1

[9] = QSP model fit of 6-day MLTA data

CN(C)C(=O)c1cc2cnc(Nc3ccc(N4CCNCC4)cn3)nc2n1C1CCCC1 [ribociclib]
EC50 ([1]; QSP model fit of 6-day MLTA data, read-out: EC50ErythII): 0.222 µM
activity at 0.0002 µM ([1]; dose 0.2 nM, 6 days, normalized to vehicle control, read-out: ErythII normalized cell count): 84.3%
activity at 0.001 µM ([1]; dose 1 nM, 6 days, normalized to vehicle control, read-out: ErythII normalized cell count): 97.7%
activity at 0.005 µM ([1]; dose 5 nM, 6 days, normalized to vehicle control, read-out: ErythII normalized cell count): 113%
activity at 0.025 µM ([1]; dose 25 nM, 6 days, normalized to vehicle control, read-out: ErythII normalized cell count): 81.4%
activity at 0.1 µM ([1]; dose 100 nM, 6 days, normalized to vehicle control, read-out: ErythII normalized cell count): 79.8%
activity at 0.5 µM ([1]; dose 500 nM, 6 days, normalized to vehicle control, read-out: ErythII normalized cell count): 66.7%
activity at 2.5 µM ([1]; dose 2500 nM, 6 days, normalized to vehicle control, read-out: ErythII normalized cell count): 33.6%
Emax ([1]; parameter from QSP model fitting, read-out: Emax_drug_ErythroidII): 10.8%
EC50 [2, 9]: 0.0358 µM
activity at 0.0002 µM ([2]; dose 0.2 nM, 6 days, normalized to vehicle control, read-out: B-lin normalized cell count): 74.3%
activity at 0.001 µM ([2]; dose 1 nM, 6 days, normalized to vehicle control, read-out: B-lin normalized cell count): 107%
activity at 0.005 µM ([2]; dose 5 nM, 6 days, normalized to vehicle control, read-out: B-lin normalized cell count): 79.4%
activity at 0.025 µM ([2]; dose 25 nM, 6 days, normalized to vehicle control, read-out: B-lin normalized cell count): 61.2%
activity at 0.1 µM ([2]; dose 100 nM, 6 days, normalized to vehicle control, read-out: B-lin normalized cell count): 46.3%
activity at 0.5 µM ([2]; dose 500 nM, 6 days, normalized to vehicle control, read-out: B-lin normalized cell count): 28%
activity at 2.5 µM ([2]; dose 2500 nM, 6 days, normalized to vehicle control, read-out: B-lin normalized cell count): 28.3%
Emax ([2]; parameter from QSP model fitting, read-out: Emax_drug_B): 30.5%
activity at 0.0002 µM ([3]; dose 0.2 nM, 6 days, normalized to vehicle control, read-out: MonoPs normalized cell count): 100%
activity at 0.001 µM ([3]; dose 1 nM, 6 days, normalized to vehicle control, read-out: MonoPs normalized cell count): 108%
activity at 0.005 µM ([3]; dose 5 nM, 6 days, normalized to vehicle control, read-out: MonoPs normalized cell count): 99.8%
activity at 0.025 µM ([3]; dose 25 nM, 6 days, normalized to vehicle control, read-out: MonoPs normalized cell count): 80.2%
activity at 0.1 µM ([3]; dose 100 nM, 6 days, normalized to vehicle control, read-out: MonoPs normalized cell count): 45.6%
activity at 0.5 µM ([3]; dose 500 nM, 6 days, normalized to vehicle control, read-out: MonoPs normalized cell count): 16.7%
activity at 2.5 µM ([3]; dose 2500 nM, 6 days, normalized to vehicle control, read-out: MonoPs normalized cell count): 6.97%
Emax ([3]; parameter from QSP model fitting, read-out: Emax_drug_MonoP): 0.0352%
activity at 0.0002 µM ([4]; dose 0.2 nM): 117%
activity at 0.001 µM ([4]; dose 1 nM): 117%
activity at 0.005 µM ([4]; dose 5 nM): 129%
activity at 0.025 µM ([4]; dose 25 nM): 81.1%
activity at 0.1 µM ([4]; dose 100 nM): 60%
activity at 0.5 µM ([4]; dose 500 nM): 32.1%
activity at 2.5 µM ([4]; dose 2500 nM): 27.8%
EC50 ([5]; Homo sapiens, Hematopoietic stem cell, 144 h, QSP model fit of 6-day MLTA data): 0.373 µM
activity at 0.0002 µM ([5]; Homo sapiens, Hematopoietic stem cell, 144 h, dose 0.2 nM, 6 days, normalized to vehicle control, read-out: HSCs normalized cell count): 90.3%
activity at 0.001 µM ([5]; Homo sapiens, Hematopoietic stem cell, 144 h, dose 1 nM, 6 days, normalized to vehicle control, read-out: HSCs normalized cell count): 93.9%
activity at 0.005 µM ([5]; Homo sapiens, Hematopoietic stem cell, 144 h, dose 5 nM, 6 days, normalized to vehicle control, read-out: HSCs normalized cell count): 107%
activity at 0.025 µM ([5]; Homo sapiens, Hematopoietic stem cell, 144 h, dose 25 nM, 6 days, normalized to vehicle control, read-out: HSCs normalized cell count): 98.7%
activity at 0.1 µM ([5]; Homo sapiens, Hematopoietic stem cell, 144 h, dose 100 nM, 6 days, normalized to vehicle control, read-out: HSCs normalized cell count): 89.4%
activity at 0.5 µM ([5]; Homo sapiens, Hematopoietic stem cell, 144 h, dose 500 nM, 6 days, normalized to vehicle control, read-out: HSCs normalized cell count): 67.7%
activity at 2.5 µM ([5]; Homo sapiens, Hematopoietic stem cell, 144 h, dose 2500 nM, 6 days, normalized to vehicle control, read-out: HSCs normalized cell count): 35.2%
Emax ([5]; Homo sapiens, Hematopoietic stem cell, 144 h, parameter from QSP model fitting, read-out: Emax_drug_HSC): 48.9%
EmaxAP,HSC ([5]; anti-proliferation component, min(1, EmaxT)): 0.489
EC50 [6, 9]: 0.18 µM
activity at 0.0002 µM ([6]; dose 0.2 nM, 6 days, normalized to vehicle control, read-out: Mon normalized cell count): 84.3%
activity at 0.001 µM ([6]; dose 1 nM, 6 days, normalized to vehicle control, read-out: Mon normalized cell count): 96.7%
activity at 0.005 µM ([6]; dose 5 nM, 6 days, normalized to vehicle control, read-out: Mon normalized cell count): 92.1%
activity at 0.025 µM ([6]; dose 25 nM, 6 days, normalized to vehicle control, read-out: Mon normalized cell count): 78.1%
activity at 0.1 µM ([6]; dose 100 nM, 6 days, normalized to vehicle control, read-out: Mon normalized cell count): 55.4%
activity at 0.5 µM ([6]; dose 500 nM, 6 days, normalized to vehicle control, read-out: Mon normalized cell count): 31.4%
activity at 2.5 µM ([6]; dose 2500 nM, 6 days, normalized to vehicle control, read-out: Mon normalized cell count): 8.51%
Emax ([6]; parameter from QSP model fitting, read-out: Emax_drug_Mono): 19.5%
activity at 0.0002 µM ([7]; dose 0.2 nM, 6 days, normalized to vehicle control, read-out: MPPs normalized cell count): 81.4%
activity at 0.001 µM ([7]; dose 1 nM, 6 days, normalized to vehicle control, read-out: MPPs normalized cell count): 91.9%
activity at 0.005 µM ([7]; dose 5 nM, 6 days, normalized to vehicle control, read-out: MPPs normalized cell count): 83.8%
activity at 0.025 µM ([7]; dose 25 nM, 6 days, normalized to vehicle control, read-out: MPPs normalized cell count): 63.7%
activity at 0.1 µM ([7]; dose 100 nM, 6 days, normalized to vehicle control, read-out: MPPs normalized cell count): 46.9%
activity at 0.5 µM ([7]; dose 500 nM, 6 days, normalized to vehicle control, read-out: MPPs normalized cell count): 28.4%
activity at 2.5 µM ([7]; dose 2500 nM, 6 days, normalized to vehicle control, read-out: MPPs normalized cell count): 16.9%
Emax ([7]; parameter from QSP model fitting, read-out: Emax_drug_MPP): 0.0237%
activity at 0.0002 µM ([8]; dose 0.2 nM, 6 days, normalized to vehicle control, read-out: ErythI normalized cell count): 101%
activity at 0.001 µM ([8]; dose 1 nM, 6 days, normalized to vehicle control, read-out: ErythI normalized cell count): 102%
activity at 0.005 µM ([8]; dose 5 nM, 6 days, normalized to vehicle control, read-out: ErythI normalized cell count): 108%
activity at 0.025 µM ([8]; dose 25 nM, 6 days, normalized to vehicle control, read-out: ErythI normalized cell count): 85.8%
activity at 0.1 µM ([8]; dose 100 nM, 6 days, normalized to vehicle control, read-out: ErythI normalized cell count): 69%
activity at 0.5 µM ([8]; dose 500 nM, 6 days, normalized to vehicle control, read-out: ErythI normalized cell count): 31.2%
activity at 2.5 µM ([8]; dose 2500 nM, 6 days, normalized to vehicle control, read-out: ErythI normalized cell count): 9.42%
Emax ([8]; parameter from QSP model fitting, read-out: Emax_drug_ErythroidI): 0.05%
